Assay results taken from PubChem BioAssay (NCI).
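In this assay, cells in 96-well plates receive the compound at five concentrations for 48 hours. Endpoints are linearly interpolated between the surrounding concentrations. Definition used: TGI = concentration required for complete inhibition of growth.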

Test system: SF-268 CNS
Assay: DTP human tumour cell line panel, 48 h

| SMILES | TGI [µM] |
| --- | --- |
| N=c1c2c(=S)n(-c3ccccc3)c(=S)n(-c3ccccc3)c2nc(SCCCN2CCCCC2)n1-c1ccccc1 | 3.55 |
| CN1C(=O)C(O)CC1c1ccc(C(F)(F)F)cc1 (configuration not stated) | > 100 |
| CC1=C(C(=O)OCCc2ccc([N+](=O)[O-])cc2)C(c2cccc([N+](=O)[O-])c2)C(C(=O)OC(C)C)=C(C)N1 (configuration not stated) | > 100 |
| Cc1cccc(C)c1NC(=O)/C=C/c1ccccc1 | > 100 |
| COc1ccc2c(N=[N+]=[N-])c(-c3ccccc3)c(=O)oc2c1 | > 100 |

Test system: SNB-19 CNS
Assay: DTP human tumour cell line panel, 48 h

| SMILES | TGI [µM] |
| --- | --- |
| N=c1c2c(=S)n(-c3ccccc3)c(=S)n(-c3ccccc3)c2nc(SCCCN2CCCCC2)n1-c1ccccc1 | 9.41 |
| CN1C(=O)C(O)CC1c1ccc(C(F)(F)F)cc1 (configuration not stated) | > 100 |
| CC1=C(C(=O)OCCc2ccc([N+](=O)[O-])cc2)C(c2cccc([N+](=O)[O-])c2)C(C(=O)OC(C)C)=C(C)N1 (configuration not stated) | > 100 |
| Cc1cccc(C)c1NC(=O)/C=C/c1ccccc1 | > 100 |

Test system: TK-10 renal
Assay: DTP human tumour cell line panel, 48 h

| SMILES | TGI [µM] |
| --- | --- |
| N=c1c2c(=S)n(-c3ccccc3)c(=S)n(-c3ccccc3)c2nc(SCCCN2CCCCC2)n1-c1ccccc1 | 3.08 |
| CN1C(=O)C(O)CC1c1ccc(C(F)(F)F)cc1 (configuration not stated) | > 100 |
| CC1=C(C(=O)OCCc2ccc([N+](=O)[O-])cc2)C(c2cccc([N+](=O)[O-])c2)C(C(=O)OC(C)C)=C(C)N1 (configuration not stated) | > 100 |
| Cc1cccc(C)c1NC(=O)/C=C/c1ccccc1 | > 100 |
| COc1ccc2c(N=[N+]=[N-])c(-c3ccccc3)c(=O)oc2c1 | > 100 |

Test system: SW-620 colon
Assay: DTP human tumour cell line panel, 48 h

| SMILES | TGI [µM] |
| --- | --- |
| N=c1c2c(=S)n(-c3ccccc3)c(=S)n(-c3ccccc3)c2nc(SCCCN2CCCCC2)n1-c1ccccc1 | 5.15 |
| CN1C(=O)C(O)CC1c1ccc(C(F)(F)F)cc1 (configuration not stated) | > 100 |
| CC1=C(C(=O)OCCc2ccc([N+](=O)[O-])cc2)C(c2cccc([N+](=O)[O-])c2)C(C(=O)OC(C)C)=C(C)N1 (configuration not stated) | > 100 |
| Cc1cccc(C)c1NC(=O)/C=C/c1ccccc1 | > 100 |
| COc1ccc2c(N=[N+]=[N-])c(-c3ccccc3)c(=O)oc2c1 | > 100 |

Test system: SNB-75 CNS
Assay: DTP human tumour cell line panel, 48 h

| SMILES | TGI [µM] |
| --- | --- |
| N=c1c2c(=S)n(-c3ccccc3)c(=S)n(-c3ccccc3)c2nc(SCCCN2CCCCC2)n1-c1ccccc1 | 3.28 |
| CN1C(=O)C(O)CC1c1ccc(C(F)(F)F)cc1 (configuration not stated) | > 100 |
| CC1=C(C(=O)OCCc2ccc([N+](=O)[O-])cc2)C(c2cccc([N+](=O)[O-])c2)C(C(=O)OC(C)C)=C(C)N1 (configuration not stated) | 76.7 |
| Cc1cccc(C)c1NC(=O)/C=C/c1ccccc1 | > 100 |
| COc1ccc2c(N=[N+]=[N-])c(-c3ccccc3)c(=O)oc2c1 | > 100 |

Test system: UACC-62 melanoma
Assay: DTP human tumour cell line panel, 48 h

| SMILES | TGI [µM] |
| --- | --- |
| N=c1c2c(=S)n(-c3ccccc3)c(=S)n(-c3ccccc3)c2nc(SCCCN2CCCCC2)n1-c1ccccc1 | 3.03 |
| CN1C(=O)C(O)CC1c1ccc(C(F)(F)F)cc1 (configuration not stated) | > 100 |
| CC1=C(C(=O)OCCc2ccc([N+](=O)[O-])cc2)C(c2cccc([N+](=O)[O-])c2)C(C(=O)OC(C)C)=C(C)N1 (configuration not stated) | > 100 |
| Cc1cccc(C)c1NC(=O)/C=C/c1ccccc1 | > 100 |
| COc1ccc2c(N=[N+]=[N-])c(-c3ccccc3)c(=O)oc2c1 | > 100 |

Test system: MCF7 breast
Assay: DTP human tumour cell line panel, 48 h

| SMILES | TGI [µM] |
| --- | --- |
| N=c1c2c(=S)n(-c3ccccc3)c(=S)n(-c3ccccc3)c2nc(SCCCN2CCCCC2)n1-c1ccccc1 | 1.3 |
| CN1C(=O)C(O)CC1c1ccc(C(F)(F)F)cc1 (configuration not stated) | > 100 |
| CC1=C(C(=O)OCCc2ccc([N+](=O)[O-])cc2)C(c2cccc([N+](=O)[O-])c2)C(C(=O)OC(C)C)=C(C)N1 (configuration not stated) | > 100 |
| Cc1cccc(C)c1NC(=O)/C=C/c1ccccc1 | > 100 |
| COc1ccc2c(N=[N+]=[N-])c(-c3ccccc3)c(=O)oc2c1 | > 100 |

Test system: NCI/ADR-RES ovarian
Assay: DTP human tumour cell line panel, 48 h

| SMILES | TGI [µM] |
| --- | --- |
| N=c1c2c(=S)n(-c3ccccc3)c(=S)n(-c3ccccc3)c2nc(SCCCN2CCCCC2)n1-c1ccccc1 | 8.97 |
| CN1C(=O)C(O)CC1c1ccc(C(F)(F)F)cc1 (configuration not stated) | > 100 |
| CC1=C(C(=O)OCCc2ccc([N+](=O)[O-])cc2)C(c2cccc([N+](=O)[O-])c2)C(C(=O)OC(C)C)=C(C)N1 (configuration not stated) | > 100 |

Test system: HS 578T breast
Assay: DTP human tumour cell line panel, 48 h

| SMILES | TGI [µM] |
| --- | --- |
| N=c1c2c(=S)n(-c3ccccc3)c(=S)n(-c3ccccc3)c2nc(SCCCN2CCCCC2)n1-c1ccccc1 | > 100 |
| CN1C(=O)C(O)CC1c1ccc(C(F)(F)F)cc1 (configuration not stated) | > 100 |
| CC1=C(C(=O)OCCc2ccc([N+](=O)[O-])cc2)C(c2cccc([N+](=O)[O-])c2)C(C(=O)OC(C)C)=C(C)N1 (configuration not stated) | > 100 |
| Cc1cccc(C)c1NC(=O)/C=C/c1ccccc1 | > 100 |
| COc1ccc2c(N=[N+]=[N-])c(-c3ccccc3)c(=O)oc2c1 | > 100 |

Test system: NCI-H23 lung
Assay: DTP human tumour cell line panel, 48 h

| SMILES | TGI [µM] |
| --- | --- |
| N=c1c2c(=S)n(-c3ccccc3)c(=S)n(-c3ccccc3)c2nc(SCCCN2CCCCC2)n1-c1ccccc1 | 3.37 |
| CN1C(=O)C(O)CC1c1ccc(C(F)(F)F)cc1 (configuration not stated) | > 100 |
| CC1=C(C(=O)OCCc2ccc([N+](=O)[O-])cc2)C(c2cccc([N+](=O)[O-])c2)C(C(=O)OC(C)C)=C(C)N1 (configuration not stated) | > 100 |
| Cc1cccc(C)c1NC(=O)/C=C/c1ccccc1 | > 100 |
| COc1ccc2c(N=[N+]=[N-])c(-c3ccccc3)c(=O)oc2c1 | > 100 |

Test system: OVCAR-8 ovarian
Assay: DTP human tumour cell line panel, 48 h

| SMILES | TGI [µM] |
| --- | --- |
| N=c1c2c(=S)n(-c3ccccc3)c(=S)n(-c3ccccc3)c2nc(SCCCN2CCCCC2)n1-c1ccccc1 | 3.36 |
| CN1C(=O)C(O)CC1c1ccc(C(F)(F)F)cc1 (configuration not stated) | > 100 |
| CC1=C(C(=O)OCCc2ccc([N+](=O)[O-])cc2)C(c2cccc([N+](=O)[O-])c2)C(C(=O)OC(C)C)=C(C)N1 (configuration not stated) | > 100 |
| Cc1cccc(C)c1NC(=O)/C=C/c1ccccc1 | > 100 |
| COc1ccc2c(N=[N+]=[N-])c(-c3ccccc3)c(=O)oc2c1 | > 100 |

Test system: KM12 colon
Assay: DTP human tumour cell line panel, 48 h

| SMILES | TGI [µM] |
| --- | --- |
| N=c1c2c(=S)n(-c3ccccc3)c(=S)n(-c3ccccc3)c2nc(SCCCN2CCCCC2)n1-c1ccccc1 | 3.44 |
| CN1C(=O)C(O)CC1c1ccc(C(F)(F)F)cc1 (configuration not stated) | > 100 |
| CC1=C(C(=O)OCCc2ccc([N+](=O)[O-])cc2)C(c2cccc([N+](=O)[O-])c2)C(C(=O)OC(C)C)=C(C)N1 (configuration not stated) | > 100 |
| Cc1cccc(C)c1NC(=O)/C=C/c1ccccc1 | > 100 |
| COc1ccc2c(N=[N+]=[N-])c(-c3ccccc3)c(=O)oc2c1 | > 100 |

Test system: EKVX NSCLC
Assay: DTP human tumour cell line panel, 48 h

| SMILES | TGI [µM] |
| --- | --- |
| N=c1c2c(=S)n(-c3ccccc3)c(=S)n(-c3ccccc3)c2nc(SCCCN2CCCCC2)n1-c1ccccc1 | 3.47 |
| CN1C(=O)C(O)CC1c1ccc(C(F)(F)F)cc1 (configuration not stated) | > 100 |
| CC1=C(C(=O)OCCc2ccc([N+](=O)[O-])cc2)C(c2cccc([N+](=O)[O-])c2)C(C(=O)OC(C)C)=C(C)N1 (configuration not stated) | > 100 |
| Cc1cccc(C)c1NC(=O)/C=C/c1ccccc1 | > 100 |
| COc1ccc2c(N=[N+]=[N-])c(-c3ccccc3)c(=O)oc2c1 | > 100 |

Test system: ACHN renal
Assay: DTP human tumour cell line panel, 48 h

| SMILES | TGI [µM] |
| --- | --- |
| N=c1c2c(=S)n(-c3ccccc3)c(=S)n(-c3ccccc3)c2nc(SCCCN2CCCCC2)n1-c1ccccc1 | 3.08 |
| CN1C(=O)C(O)CC1c1ccc(C(F)(F)F)cc1 (configuration not stated) | > 100 |
| CC1=C(C(=O)OCCc2ccc([N+](=O)[O-])cc2)C(c2cccc([N+](=O)[O-])c2)C(C(=O)OC(C)C)=C(C)N1 (configuration not stated) | > 100 |
| Cc1cccc(C)c1NC(=O)/C=C/c1ccccc1 | > 100 |
| COc1ccc2c(N=[N+]=[N-])c(-c3ccccc3)c(=O)oc2c1 | > 100 |
